Patent publication US12351557B2, “Chemical compound manufacture, new salt form, and therapeutic uses thereof” (Eustralis Pharmaceuticals Limited (Trading As Pressura …, priority 2018, dated 2025)
Where a name gives a salt, the structure may show the parent alone. Read-outs that look alike come from different tables or passages of the source.

Columns and labels:
[1] = Hydroscopicity (water sorption at 90% RH); assay type: physicochemical
[2] = Polymorphism risk assessment; conditions: 2HCl salt physicochemical summary
Description: Decomposition/melting range temperature and presence of solvate molecules are estimated from thermal analyses. The polymorphism risk was assessed base on the number of identified forms during this work and reproducibility of the salt screen target patterns.

[3] = Solubility of 2HCl salt in solvents; assay type: physicochemical
Description: A summary of the physicochemical characteristics of 2HCl salt of Compound of Formula (1) is provided below.
Solubility: very soluble in water ([…]0.2 mg/μL), freely soluble in ethanol (0.1-0.2 mg/μL), sparingly soluble in 1-propanol and acetonitrile (0.01-0.03 mg/μL).

[4] = pH of solution in purified water; assay type: physicochemical; conditions: 5 mg/mL solution in purified water
Description: pH: 2 to 3 (5 mg/mL solution in purified water).

[5] = Stability study, samples stored at 40° C./75% RH; assay type: physicochemical
[6] = Qualitative solubility of free base in 50 solvents; assay type: physicochemical; conditions: for Qualitative solubility in solvents: organic solvents, 50 solvents studied
Description: The solubility of compound of Formula (1) was first qualitatively studied in 50 solvents. In all SAS experiments, the amorphous free base of compound of formula (1) was obtained after evaporation of the experiments.

pKa estimate = assay type: physicochemical; conditions: free base

Cc1ccccc1-c1cc(N2CCN(C)CC2)ncc1C(=O)N(C)Cc1cc(C(F)(F)F)cc(C(F)(F)F)c1 [Compound of formula (1) 2HCl salt]
Hydroscopicity (Water sorption at 90% RH) [1]: 3.2% | Polymorphism [2]: Not detectable | Solubility in 1-propanol ([3]; 1-propanol, sparingly soluble): 10000 to 30000 µg/mL | Solubility in acetonitrile ([3]; acetonitrile, sparingly soluble): 10000 to 30000 µg/mL | Solubility in ethanol ([3]; ethanol, freely soluble): 100000 to 200000 µg/mL | pH [4]: 2 to 3 | Appearance (white to yellow powder) ([5]; 0 months): Complies | Assay (% "as is") ([5]; 0 months): 95.0% | Assay (% anhydrous) ([5]; 0 months): 100.0% | Related Substances: Any other unknown ([5]; 0 months): RRT 0.89: 0.007% | Related Substances: Intermediate 3 ([5]; 0 months): Int 3: 0.69% | Related Substances: RRT - 0.89 ([5]; 0 months): RRT 0.85: 0.34% | Related Substances: RRT - 1.27 ([5]; 0 months): RRT 1.27: 0.27% | Related Substances: Total Impurities ([5]; 0 months): 1.37% | Water Content ([5]; 0 months): 5.0% | pH ([5]; 0 months): 2.31 | Appearance (white to yellow powder) ([5]; 1 month): Complies | Assay (% "as is") ([5]; 1 month): 94.8% | Assay (% anhydrous) ([5]; 1 month): 99.8% | Related Substances: Any other unknown ([5]; 1 month): RRT 0.90: 0.07% | Related Substances: Intermediate 3 ([5]; 1 month): Int 3: 0.71% | Related Substances: RRT - 0.89 ([5]; 1 month): RRT 0.89: 0.36% | Related Substances: RRT - 1.27 ([5]; 1 month): RRT 1.28: 0.27% | Related Substances: Total Impurities ([5]; 1 month): 1.41% | Water Content ([5]; 1 month): 4.99% | pH ([5]; 1 month): 2.39 | Appearance (white to yellow powder) ([5]; 3 months): Complies | Assay (% "as is") ([5]; 3 months): 94.5% | Assay (% anhydrous) ([5]; 3 months): 100.1% | Related Substances: Any other unknown ([5]; 3 months): RRT 0.91: 0.05% | Related Substances: Intermediate 3 ([5]; 3 months): Int 3: 0.71% | Related Substances: RRT - 0.89 ([5]; 3 months): RRT 0.90: 0.36% | Related Substances: RRT - 1.27 ([5]; 3 months): RRT 1.27: 0.26 | Related Substances: Total Impurities ([5]; 3 months): 1.38% | Water Content ([5]; 3 months): 5.58% | pH ([5]; 3 months): 2.33 | Appearance (white to yellow powder) ([5]; 6 months): Complies | Assay (% "as is") ([5]; 6 months): 94.6% | Assay (% anhydrous) ([5]; 6 months): 99.7% | Related Substances: Any other unknown ([5]; 6 months): RRT 0.91: 0.06% | Related Substances: Intermediate 3 ([5]; 6 months): Int 3: 0.71% | Related Substances: RRT - 0.89 ([5]; 6 months): RRT 0.90: 0.35% | Related Substances: RRT - 1.27 ([5]; 6 months): RRT 1.27: 0.27% | Related Substances: Total Impurities ([5]; 6 months): 1.39% | Water Content ([5]; 6 months): 5.17% | pH ([5]; 6 months): 2.47 | Appearance (white to yellow powder) ([5]; Initial Release): Complies | Assay (% "as is") ([5]; Initial Release): 98.3% | Assay (% anhydrous) ([5]; Initial Release): 99.3% | Related Substances: Intermediate 3 ([5]; Initial Release): Int 3: 0.71% | Related Substances: RRT - 0.89 ([5]; Initial Release): RRT 0.87: 0.35% | Related Substances: RRT - 1.27 ([5]; Initial Release): RRT 1.27: 0.28% | Related Substances: Total Impurities ([5]; Initial Release): 1.34% | Water Content ([5]; Initial Release): 1.0% | pH ([5]; Initial Release): 2.31

Cc1ccccc1-c1cc(N2CCN(C)CC2)ncc1C(=O)N(C)Cc1cc(C(F)(F)F)cc(C(F)(F)F)c1 [Compound of Formula (1), N-{[3,5-Bis(trifluoromethyl)phenyl]methyl}-N-methyl-4-(2-methylphenyl)-6-(4-methyl-1-piperazinyl)-3-pyridinecarboxamide]
Qualitative solubility in solvents [6]: very soluble or soluble in many solvents | Qualitative solubility in solvents ([6]; listed as free base): very soluble or soluble in almost all solvents | Behaviour of water as solvent ([6]; water): antisolvent | pKa (pKa estimate; read-out: pKa 1 (estimate)): 7.54 | pKa (pKa estimate; read-out: pKa 2 (estimate)): 4.05
